Assay results as given in patent US20230157952A1, “METHOD FOR IMPROVING THE STABILITY OF A PHARMACEUTICAL COMPOSITION COMPRISING A HIGH PENETRATION DRUG, AND THE PHARMACEUTICAL COMPOSITION OBTAINED THEREFROM” (Techfields Inc., priority 2020, published 2023).

Experiments:
[1] = Effect of temperature (and pH) on the stability of the solution (purity); assay type: physicochemical; details: 7% solution in water
[2] = Effect of concentration on the stability of the solution (purity over time); details: in water at 25° C.

SMILES: CCN(CC)CCOC(=O)Cc1ccc(C(=O)c2ccc(C)cc2)n1C.Cl [2-(diethylamino)ethyl 1-methyl-5-(4-methylbenzoyl)-1H-pyrrole-2-acetate•HCl]
- Stability of the solution at a temperature higher than 40° C. and a pH lower than 3 or greater than 6 [1]: not stable
- Purity at Day 3 ([2]; 0.01 wt %): 82.3%
- Purity at Day 7 ([2]; 0.01 wt %): 72.2%
- Purity at Day 14 ([2]; 0.01 wt %): 57.4%
- Purity at Day 21 ([2]; 0.01 wt %): 45.4%
- Purity at Day 28 ([2]; 0.01 wt %): 35.7%
- Purity at hr 0 ([2]; 0.01 wt %): 97.4%
- Purity at Day 3 ([2]; 0.1 wt %): 95.6%
- Purity at Day 7 ([2]; 0.1 wt %): 93.3%
- Purity at Day 14 ([2]; 0.1 wt %): 88.3%
- Purity at Day 21 ([2]; 0.1 wt %): 83.5%
- Purity at Day 28 ([2]; 0.1 wt %): 78.1%
- Purity at hr 0 ([2]; 0.1 wt %): 97.5%
- Purity at Day 3 ([2]; 1 wt %): 95.7%
- Purity at Day 7 ([2]; 1 wt %): 94.6%
- Purity at Day 14 ([2]; 1 wt %): 92.3%
- Purity at Day 21 ([2]; 1 wt %): 90.1%
- Purity at Day 28 ([2]; 1 wt %): 88.6%
- Purity at hr 0 ([2]; 1 wt %): 97.7%
- Purity at Day 3 ([2]; 3 wt %): 96.5%
- Purity at Day 7 ([2]; 3 wt %): 96.2%
- Purity at Day 14 ([2]; 3 wt %): 94.8%
- Purity at Day 21 ([2]; 3 wt %): 94.0%
- Purity at Day 28 ([2]; 3 wt %): 92.7%
- Purity at hr 0 ([2]; 3 wt %): 97.9%
- Purity at Day 3 ([2]; 5 wt %): 97.2%
- Purity at Day 7 ([2]; 5 wt %): 97.0%
- Purity at Day 14 ([2]; 5 wt %): 96.8%
- Purity at Day 21 ([2]; 5 wt %): 95.6%
- Purity at Day 28 ([2]; 5 wt %): 94.4%
- Purity at hr 0 ([2]; 5 wt %): 97.9%
- Purity at Day 3 ([2]; 7 wt %): 97.5%
- Purity at Day 7 ([2]; 7 wt %): 97.2%
- Purity at Day 14 ([2]; 7 wt %): 97.2%
- Purity at Day 21 ([2]; 7 wt %): 96.7%
- Purity at Day 28 ([2]; 7 wt %): 96.5%
- Purity at hr 0 ([2]; 7 wt %): 98.1%
- Purity at Day 3 ([2]; 8 wt %): 97.7%
- Purity at Day 7 ([2]; 8 wt %): 97.3%
- Purity at Day 14 ([2]; 8 wt %): 96.9%
- Purity at Day 21 ([2]; 8 wt %): 96.9%
- Purity at Day 28 ([2]; 8 wt %): 96.6%
- Purity at hr 0 ([2]; 8 wt %): 98.1%
- Purity at Day 3 ([2]; 10 wt %): 97.9%
- Purity at Day 7 ([2]; 10 wt %): 97.5%
- Purity at Day 14 ([2]; 10 wt %): 97.3%
- Purity at Day 21 ([2]; 10 wt %): 97.1%
- Purity at Day 28 ([2]; 10 wt %): 96.5%
- Purity at hr 0 ([2]; 10 wt %): 98.2%
- Purity at Day 3 ([2]; 15 wt %): 97.7%
- Purity at Day 7 ([2]; 15 wt %): 97.6%
- Purity at Day 14 ([2]; 15 wt %): 97.4%
- Purity at Day 21 ([2]; 15 wt %): 97.1%
- Purity at Day 28 ([2]; 15 wt %): 96.8%
- Purity at hr 0 ([2]; 15 wt %): 98.1%
- Purity at Day 3 ([2]; 20 wt %): 97.6%
- Purity at Day 7 ([2]; 20 wt %): 97.5%
- Purity at Day 14 ([2]; 20 wt %): 97.2%
- Purity at Day 21 ([2]; 20 wt %): 97.1%
- Purity at Day 28 ([2]; 20 wt %): 96.8%
- Purity at hr 0 ([2]; 20 wt %): 98.0%
- Purity at Day 3 ([2]; 30 wt %): 97.7%
- Purity at Day 7 ([2]; 30 wt %): 97.5%
- Purity at Day 14 ([2]; 30 wt %): 97.3%
- Purity at Day 21 ([2]; 30 wt %): 97.0%
- Purity at Day 28 ([2]; 30 wt %): 96.7%
- Purity at hr 0 ([2]; 30 wt %): 98.1%
- Purity at Day 3 ([2]; 50 wt %): 97.8%
- Purity at Day 7 ([2]; 50 wt %): 97.5%
- Purity at Day 14 ([2]; 50 wt %): 97.2%
- Purity at Day 21 ([2]; 50 wt %): 96.9%
- Purity at Day 28 ([2]; 50 wt %): 96.8%
- Purity at hr 0 ([2]; 50 wt %): 98.2%
- Stability when the concentration is 0.1% or lower [2]: not stable

SMILES: CCN(CC)CCOC(=O)C(C)c1ccc2oc(-c3ccc(Cl)cc3)nc2c1.Cl (stereo not shown) [2-(diethylamino)ethyl 2-[(4-chlorophenyl)-5-benzoxazole]propionate•HCl]
- Stability of the solution at a temperature higher than 40° C. and a pH lower than 3 or greater than 6 [1]: not stable
- Purity at Day 3 ([2]; 0.01 wt %): 84.7%
- Purity at Day 7 ([2]; 0.01 wt %): 73.9%
- Purity at Day 14 ([2]; 0.01 wt %): 62.3%
- Purity at Day 21 ([2]; 0.01 wt %): 52.9%
- Purity at Day 28 ([2]; 0.01 wt %): 42.9%
- Purity at hr 0 ([2]; 0.01 wt %): 97.8%
- Purity at Day 3 ([2]; 0.1 wt %): 96.7%
- Purity at Day 7 ([2]; 0.1 wt %): 95.5%
- Purity at Day 14 ([2]; 0.1 wt %): 91.1%
- Purity at Day 21 ([2]; 0.1 wt %): 87.2%
- Purity at Day 28 ([2]; 0.1 wt %): 83.0%
- Purity at hr 0 ([2]; 0.1 wt %): 97.9%
- Purity at Day 3 ([2]; 1 wt %): 97.0%
- Purity at Day 7 ([2]; 1 wt %): 96.0%
- Purity at Day 14 ([2]; 1 wt %): 94.0%
- Purity at Day 21 ([2]; 1 wt %): 92.3%
- Purity at Day 28 ([2]; 1 wt %): 89.9%
- Purity at hr 0 ([2]; 1 wt %): 98.1%
- Purity at Day 3 ([2]; 3 wt %): 97.5%
- Purity at Day 7 ([2]; 3 wt %): 97.0%
- Purity at Day 14 ([2]; 3 wt %): 95.7%
- Purity at Day 21 ([2]; 3 wt %): 94.3%
- Purity at Day 28 ([2]; 3 wt %): 92.8%
- Purity at hr 0 ([2]; 3 wt %): 98.3%
- Purity at Day 3 ([2]; 5 wt %): 98.0%
- Purity at Day 7 ([2]; 5 wt %): 97.9%
- Purity at Day 14 ([2]; 5 wt %): 97.6%
- Purity at Day 21 ([2]; 5 wt %): 97.0%
- Purity at Day 28 ([2]; 5 wt %): 96.3%
- Purity at hr 0 ([2]; 5 wt %): 98.5%
- Purity at Day 3 ([2]; 7 wt %): 98.4%
- Purity at Day 7 ([2]; 7 wt %): 98.2%
- Purity at Day 14 ([2]; 7 wt %): 98.0%
- Purity at Day 21 ([2]; 7 wt %): 97.8%
- Purity at Day 28 ([2]; 7 wt %): 97.4%
- Purity at hr 0 ([2]; 7 wt %): 98.6%
- Purity at Day 3 ([2]; 8 wt %): 98.5%
- Purity at Day 7 ([2]; 8 wt %): 98.3%
- Purity at Day 14 ([2]; 8 wt %): 98.1%
- Purity at Day 21 ([2]; 8 wt %): 97.8%
- Purity at Day 28 ([2]; 8 wt %): 97.4%
- Purity at hr 0 ([2]; 8 wt %): 98.6%
- Purity at Day 3 ([2]; 10 wt %): 98.4%
- Purity at Day 7 ([2]; 10 wt %): 98.3%
- Purity at Day 14 ([2]; 10 wt %): 98.2%
- Purity at Day 21 ([2]; 10 wt %): 97.7%
- Purity at Day 28 ([2]; 10 wt %): 97.3%
- Purity at hr 0 ([2]; 10 wt %): 98.5%
- Purity at Day 3 ([2]; 15 wt %): 98.5%
- Purity at Day 7 ([2]; 15 wt %): 98.3%
- Purity at Day 14 ([2]; 15 wt %): 98.1%
- Purity at Day 21 ([2]; 15 wt %): 97.7%
- Purity at Day 28 ([2]; 15 wt %): 97.5%
- Purity at hr 0 ([2]; 15 wt %): 98.6%
- Purity at Day 3 ([2]; 20 wt %): 98.4%
- Purity at Day 7 ([2]; 20 wt %): 98.3%
- Purity at Day 14 ([2]; 20 wt %): 98.2%
- Purity at Day 21 ([2]; 20 wt %): 97.8%
- Purity at Day 28 ([2]; 20 wt %): 97.4%
- Purity at hr 0 ([2]; 20 wt %): 98.5%
- Purity at Day 3 ([2]; 30 wt %): 98.5%
- Purity at Day 7 ([2]; 30 wt %): 98.3%
- Purity at Day 14 ([2]; 30 wt %): 98.0%
- Purity at Day 21 ([2]; 30 wt %): 97.7%
- Purity at Day 28 ([2]; 30 wt %): 97.3%
- Purity at hr 0 ([2]; 30 wt %): 98.6%
- Purity at Day 3 ([2]; 50 wt %): 98.5%
- Purity at Day 7 ([2]; 50 wt %): 98.3%
- Purity at Day 14 ([2]; 50 wt %): 98.0%
- Purity at Day 21 ([2]; 50 wt %): 97.9%
- Purity at Day 28 ([2]; 50 wt %): 97.5%
- Purity at hr 0 ([2]; 50 wt %): 98.5%
- Stability when the concentration is 0.1% or lower [2]: not stable
